Experiment [1] has as its system genotype 1b (Con-1) HCV replicon in Huh-7 cells. The experiment can be described thus: HCV replicon luciferase assay (1b replicon). To be noted: Hepatitis C virus. Type of experiment: cell-based. Here is the method:
The cell lines used to evaluate compounds consist of a human hepatocyte derived cell line (Huh-7) that constitutively expresses a genotype 1b (Con-1) HCV replicon or a genotype 1b (Con-1) HCV replicon with an asparagine replacing the cysteine at amino acid 316, or a genotype 2a (JFH-1) replicon, containing a Renilla luciferase reporter gene. These cells were maintained in Dulbecco's modified Eagle medium (DMEM) containing 10% FBS, 100 U/mL penicillin/streptomycin and 1.0 mg/mL G418.
HCV Replicon Luciferase Assay.
After 3 days incubation at 37° C., cells were analyzed for Renilla Luciferase activity using the EnduRen substrate (Promega cat #E6485) according to the manufacturer's directions. Briefly, the EnduRen substrate was diluted in DMEM and then added to the plates to a final concentration of 7.5 μM. The plates were incubated for at least 1 h at 37° C. then read on a Viewlux Imager (PerkinElmer) using a luminescence program.

Experiment [2] deals with HCV NS5B genotype 1b (Con1) (Hepatitis C virus genotype 1b (isolate Con1) (HCV), UniProt Q9WMX2). Kind of experiment: HCV NS5B RdRp enzyme assay (1b enzyme). Type of experiment: biochemical. The settings on record: genotype 1b NS5B enzyme. The method, then: HCV NS5B RdRp Cloning, Expression, and Purification.
The cDNA encoding NS5B proteins of HCV genotype 1b (Con1), a genotype 1b variant with amino acid 316 mutated from cysteine to asparagine, and genotype 2a (JFH-1), were cloned into the pET21a expression vector. Each untagged protein was expressed with an 18 amino acid C-terminal truncation to enhance the solubility. The E. coli competent cell line BL21(DE3) was used for expression of the protein. Cultures were grown at 37° C. for ˜4 hours until the cultures reached an optical density of 2.0 at 600 nm. The cultures were cooled to 20° C. and induced with 1 mM IPTG. Fresh ampicillin was added to a final concentration of 50 μg/mL and the cells were grown overnight at 20° C.
The lysis buffer consisted of 20 mM Tris-HCl, pH 7.4, 500 mM NaCl, 0.5% triton X-100, 1 mM DTT, 1 mM EDTA, 20% glycerol, 0.5 mg/mL lysozyme, 10 mM MgCl2, 15 ug/mL deoxyribonuclease I, and Complete TM protease inhibitor tablets (Roche). After addition of the lysis buffer, frozen cell pellets were resuspended using a tissue homogenizer. To reduce the viscosity of the sample, aliquots of the lysate were sonicated on ice using a microtip attached to a Branson sonicator. The sonicated lysate was centrifuged at 100,000×g for 30 minutes at 4° C. and filtered through a 0.2 μm filter unit (Corning).
The protein was purified using two sequential chromatography steps: Heparin sepharose CL-6B and polyU sepharose 4B. The chromatography buffers were identical to the lysis buffer but contained no lysozyme, deoxyribonuclease I, MgCl2 or protease inhibitor and the NaCl concentration of the buffer was adjusted according to the requirements for charging the protein onto the column. Each column was eluted with a NaCl gradient which varied in length from 5-50 column volumes depending on the column type. […] The enzyme was aliquoted and stored at −80° C.
HCV NS5B RdRp Enzyme Assay.
An on-bead solid phase homogeneous assay was used in a 384-well format to assess NS5B inhibitors (WangY-K, Rigat K, Roberts S, and Gao M (2006) Anal Biochem, 359: 106-111). The biotinylated oligo dT12 primer was captured on streptavidin-coupled imaging beads (GE, RPNQ0261) by mixing primer and beads in 1× buffer and incubating at room temperature for three hours. Unbound primer was removed after centrifugation. The primer-bound beads were resuspended in 3× reaction mix (20 mM Hepes buffer, pH 7.5, dT primer coupled beads, poly A template, ^3H-UTP, and RNAse inhibitor (Promega N2515)). Compounds were serially diluted 1:3 in DMSO and aliquoted into assay plates. Equal volumes (5 μL) of water, 3× reaction mix, and enzyme in 3× assay buffer (60 mM Hepes buffer, pH 7.5, 7.5 mM MgCl2, 7.5 mM KCl, 3 mM DTT, 0.03 mg/mL BSA, 6% glycerol) were added to the diluted compound on the assay plate. Final concentration of components in 384-well assay: 0.36 nM template, 15 nM primer, 0.29 μM ^3H-UTP (0.3 μCi), 1.6 U/4 RNAse inhibitor, 7 nM NS5B enzyme, 0.01 mg/mL BSA, 1 mM DTT, and 0.33 μg/μL beads, 20 mM Hepes buffer, pH 7.5, 2.5 mM MgCl2, 2.5 mM KCl, and 0.1% DMSO.
Reactions were allowed to proceed for 24 hours at 30° C. and terminated by the addition of 50 mM EDTA (5 μL). After incubating for at least 15 minutes, plates were read on an Amersham LEADseeker multimodality imaging system.
IC50 values for compounds were determined using ten different [I]. IC50 values were calculated from the inhibition using the four-parameter logistic formula y=A+((B−A)/(1+((C/x)^D))), where A and B denote minimal and maximal % inhibition, respectively, C is the IC50, D is hill slope and x represents compound concentration.

Setting [3] is: 72 h, genotype 1b replicon, Huh-7, Renilla luciferase, 3 days incubation, read-out: EC50.

Like-named read-outs stand apart in the source and are kept apart here.

Chain of HCV NS5B genotype 1b (Con1) (Q9WMX2 2420-2992): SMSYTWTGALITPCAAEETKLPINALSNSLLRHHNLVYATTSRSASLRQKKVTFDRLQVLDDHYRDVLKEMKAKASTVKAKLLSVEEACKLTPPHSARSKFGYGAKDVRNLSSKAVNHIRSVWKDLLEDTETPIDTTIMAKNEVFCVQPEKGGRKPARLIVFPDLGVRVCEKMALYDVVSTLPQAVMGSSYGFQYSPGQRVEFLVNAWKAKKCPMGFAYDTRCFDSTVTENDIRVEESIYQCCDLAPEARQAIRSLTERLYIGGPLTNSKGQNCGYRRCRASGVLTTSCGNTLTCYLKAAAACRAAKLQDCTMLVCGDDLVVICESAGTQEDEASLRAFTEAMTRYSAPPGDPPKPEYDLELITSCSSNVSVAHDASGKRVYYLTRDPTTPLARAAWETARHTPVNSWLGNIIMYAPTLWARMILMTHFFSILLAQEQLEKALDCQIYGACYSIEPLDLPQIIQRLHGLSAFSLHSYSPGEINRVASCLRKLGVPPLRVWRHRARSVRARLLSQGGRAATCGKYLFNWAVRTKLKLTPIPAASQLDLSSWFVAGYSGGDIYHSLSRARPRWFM

For `CNC(=O)c1c(-c2ccc(F)cc2)oc2cc(OCC(F)(F)F)c(-c3cnc(OC)c(C(=O)NC(C)(C)c4ncon4)c3)cc12` [Example 31, N-(2-(1,2,4-Oxadiazol-3-yl)propan-2-yl)-5-(2-(4-fluorophenyl)-3-(methylcarbamoyl)-6-(2,2,2-trifluoroethoxy)benzofuran-5-yl)-2-methoxynicotinamide], the concentration giving a half-maximal response (EC50) in experiment [1] (setting [3]) is 3.21 nM.
`CNC(=O)c1c(-c2ccc(F)cc2)oc2cc(OCC(F)(F)F)c(-c3ccc(F)c(C(=O)NC45CC(C4)C5)c3)cc12` [Example 4, 5-(3-(Bicyclo[1.1.1]pentan-1-ylcarbamoyl)-4-fluorophenyl)-2-(4-fluorophenyl)-N-methyl-6-(2,2,2-trifluoroethoxy)benzofuran-3-carboxamide]: in experiment [2], the midpoint of inhibition, the IC50, lay at 3.88 nM. Also, the EC50 in experiment [1] (setting [3]) amounted to 8.61 nM.
Taken in the same sequence, the figures for `CCOc1cc2oc(-c3ccc(F)cc3)c(C(=O)NC)c2cc1-c1ccc(OC)c(C(=O)NC2(c3ncccn3)CC2)c1` [Example 12, 6-Ethoxy-2-(4-fluorophenyl)-5-(4-methoxy-3-((1-(pyrimidin-2-yl)cyclopropyl)carbamoyl)phenyl)-N-methylbenzofuran-3-carboxamide] were 1.89 nM and 4.2 nM.
Taken in the same sequence, the figures for `CCOc1cc2oc(-c3ccc(F)cc3)c(C(=O)NC)c2cc1-c1cccc(C(=O)NC2(c3ncccn3)CC2)c1` [Example 7, 6-Ethoxy-2-(4-fluorophenyl)-N-methyl-5-(3-((1-(pyrimidin-2-yl)cyclopropyl)carbamoyl)phenyl)benzofuran-3-carboxamide] were 5.78 nM and 10 nM.
`CNC(=O)c1c(-c2ccc(F)cc2)oc2cc(OCCO)c(-c3ccc(OC)c(C(=O)NC(C)(C)c4ncon4)c3)cc12` [Example 34, 5-(3-((2-(1,2,4-Oxadiazol-3-yl)propan-2-yl)carbamoyl)-4-methoxyphenyl)-2-(4-fluorophenyl)-6-(2-hydroxyethoxy)-N-methylbenzofuran-3-carboxamide] came in with a half-inhibitory concentration (IC50) in experiment [2] of 3.89 nM. Besides, the EC50 in experiment [1] (setting [3]) was 8.31 nM.
In experiment [2], `[2H]C([2H])([2H])Oc1ncc(-c2cc3c(C(=O)NC)c(-c4ccc(F)cc4)oc3cc2OCC)cc1C(=O)NC(C)(C)C#N` [Example 17, N-(2-cyanopropan-2-yl)-5-(6-ethoxy-2-(4-fluorophenyl)-3-(methylcarbamoyl)benzofuran-5-yl)-2-(methoxy-d3)nicotinamide] yielded a concentration for half-maximal inhibition (IC50) of 1.84 nM. In addition, in experiment [1] (Huh-7, 72 h), the 50% effective concentration (EC50) is 2.8 nM.
Regarding `CCOc1cc2oc(-c3ccc(F)cc3)c(C(=O)NC)c2cc1-c1ccc(OC)c(C(=O)NC23CC(C2)C3)c1` [Example 11, 5-(3-(Bicyclo[1.1.1]pentan-1-ylcarbamoyl)-4-methoxyphenyl)-6-ethoxy-2-(4-fluorophenyl)-N-methylbenzofuran-3-carboxamide], the EC50 in experiment [1] (setting [3]) was 9.63 nM.
As to `CNC(=O)c1c(-c2ccc(F)cc2)oc2cc(OCC(F)F)c(-c3cccc(C(=O)NC4(c5ncccn5)CC4)c3)cc12` [Example 20, 6-(2,2-difluoroethoxy)-2-(4-fluorophenyl)-N-methyl-5-(3-((1-(pyrimidin-2-yl)cyclopropyl)carbamoyl)phenyl)benzofuran-3-carboxamide], the IC50 in experiment [2] was found to be 4.54 nM. In addition, the half-maximal effective concentration (EC50) in experiment [1] (Huh-7, 72 h) came out at 6.79 nM.
As for `CNC(=O)c1c(-c2ccc(F)cc2)oc2cc(OCC(F)(F)F)c(-c3cccc(C(=O)NC(C)(C)c4ncon4)c3)cc12` [Example 21, 5-(3-((2-(1,2,4-oxadiazol-3-yl)propan-2-yl)carbamoyl)phenyl)-2-(4-fluorophenyl)-N-methyl-6-(2,2,2-trifluoroethoxy)benzofuran-3-carboxamide], the 50% inhibitory concentration (IC50) in experiment [2] stood at 4.49 nM. Further, the EC50 in experiment [1] (setting [3]) amounted to 10 nM.
For the molecule `CCCOc1cc2oc(-c3ccc(F)cc3)c(C(=O)NC)c2cc1-c1ccc(OC)c(C(=O)NC(C)(C)c2ncon2)c1` [Example 25, 5-(3-((2-(1,2,4-oxadiazol-3-yl)propan-2-yl)carbamoyl)-4-methoxyphenyl)-2-(4-fluorophenyl)-N-methyl-6-propoxybenzofuran-3-carboxamide], the IC50 in experiment [2] came to 2.48 nM. In addition, in experiment [1] (setting [3]), the concentration for a half-maximal effect (EC50) amounted to 6.23 nM.
Regarding `CNC(=O)c1c(-c2ccc(F)cc2)oc2cc(OCC(F)(F)F)c(-c3cccc(C(=O)NC(C)(C)C#N)c3)cc12` [Example 10, 5-(3-((2-Cyanopropan-2-yl)carbamoyl)phenyl)-2-(4-fluorophenyl)-N-methyl-6-(2,2,2-trifluoroethoxy)benzofuran-3-carboxamide], the IC50 in experiment [2] worked out at 3.02 nM. The 50% effective concentration (EC50) in experiment [1] (setting [3]) was 5.01 nM.
Taken in the same sequence, the figures for `CCOc1cc2oc(-c3ccc(F)cc3)c(C(=O)NC)c2cc1-c1ccc(CC)c(C(=O)NC(C)(C)c2ncon2)c1` [Example 24, 5-(3-((2-(1,2,4-oxadiazol-3-yl)propan-2-yl)carbamoyl)-4-ethylphenyl)-6-ethoxy-2-(4-fluorophenyl)-N-methylbenzofuran-3-carboxamide] were above 2500 nM and 280 nM.
For `CCOc1cc2oc(-c3ccc(F)cc3)c(C(=O)NC)c2cc1-c1cccc(C(=O)NC(C)(C)c2nc3ccncc3[nH]2)c1` [Example 32, 5-(3-((2-(3H-imidazo[4,5-c]pyridin-2-yl)propan-2-yl)carbamoyl)phenyl)-6-ethoxy-2-(4-fluorophenyl)-N-methylbenzofuran-3-carboxamide] the same measures were 6.01 nM and 10 nM.
For `CNC(=O)c1c(-c2ccc(F)cc2)oc2cc(OCC(F)(F)F)c(-c3cccc(C(=O)NC4(c5ncccn5)CC4)c3)cc12` [Example 1, 2-(4-Fluorophenyl)-N-methyl-5-(3-((1-(pyrimidin-2-yl)cyclopropyl)carbamoyl)phenyl)-6-(2,2,2-trifluoroethoxy)benzofuran-3-carboxamide] the same measures were 7.42 nM and 10 nM.
Turning to `CNC(=O)c1c(-c2ccc(F)cc2)oc2cc(OCC(F)(F)F)c(-c3ccc(OC)c(C(=O)NC(C)(C)c4ncon4)c3)cc12` [Example 18, 5-(3-((2-(1,2,4-oxadiazol-3-yl)propan-2-yl)carbamoyl)-4-methoxyphenyl)-2-(4-fluorophenyl)-N-methyl-6-(2,2,2-trifluoroethoxy)benzofuran-3-carboxamide], the IC50 in experiment [2] stood at 2.83 nM. Moreover, the EC50 in experiment [1] (setting [3]) is 2.85 nM.
Consider `CNC(=O)c1c(-c2ccc(F)cc2)oc2cc(OCC(F)(F)F)c(-c3cnc(OC)c(C(=O)NC45CC(C4)C5)c3)cc12` [Example 30, N-(Bicyclo[1.1.1]pentan-1-yl)-5-(2-(4-fluorophenyl)-3-(methylcarbamoyl)-6-(2,2,2-trifluoroethoxy)benzofuran-5-yl)-2-methoxynicotinamide], for which the EC50 in experiment [1] (setting [3]) worked out at 10 nM.

Values taken from patent US10150747B2, “Compounds for the treatment of hepatitis C” (BRISTOL-MYERS SQUIBB COMPANY, priority 2015, dated 2018).
